Test results: US20240065988A1, “COMBINED USE OF KETAMINE AND RETIGABINE (EZOGABINE) FOR THE TREATMENT OF PSYCHIATRIC DISORDERS” (Yeda Research and Development Co. Ltd., priority 2021, published 2024)
“Also recorded” adds a separate entry of the source.

Tests used:
Kcnq2 mRNA = Kcnq2 mRNA (qPCR) in the vHipp of CSDS mice, FACS-sorted cells and bulk; conditions: ketamine vs saline
[1] = test system: primary hippocampal neurons; assay: qPCR mRNA expression in primary hippocampal neurons treated with ketamine or HNKet; format: cell-based, mouse; conditions: 10 μM
Method: Primary hippocampal neurons were generated from E16.5 embryos using a standard primary neuron cell culture protocol previously described [K. G. Schraut et al., Eur JNeurosci (2021) 53: 390-401]. Briefly, dissected hippocampi were harvested in ice-cold dissection medium (HBSS, 7 mM HEPES, 2 mM L-glutamine, 500 U/ml penicillin-streptomycin, all Thermo Fisher Scientific). The tissue was incubated for 10 minutes in 0.25% Trypsin-EDTA with 8 mM HEPES (Thermo Fisher Scientific) in a water bath at 37° C. Tissue was washed three times with serum medium (DMEM, 10% FBS, Thermo Fisher Scientific). The cells were dissociated by titration using glass Pasteur pipets 10 in serum medium and filtered with a 70 tm cell strainer (Corning). Cell culture plates were coated overnight with 0.05 mg/ml poly-D-lysine mol wt 70,000-150,000 (Sigma Aldrich) in 0.15 M borate buffer (pH=8.5). Cells were seeded in 24-well plates at a density of 5×10^4 cells in 1 ml growth medium (Neurobasal A medium, 1 x B27 supplement, 0.25×GlutaMAX, all Thermo Fisher Scientific) per well. All cultures were kept in a humidified incubator at 37° C. and 5% CO2. Growth medium was renewed after 7 days of culture. For all experiments, mature twenty-one-day old primary neuronal cultures were used.
Primary hippocampal neurons were generated from E16.5 embryos and cultured for 21 days, as described above (see Primary Cell Culture). For experiment 1 (FIGS. 3A-K), neurons were treated with a saline solution, (R,S)-ketamine (10 μM) (Ketaset, Zoetis, Germany) or (2R,6R)-HNKet (10 μM) (Sigma, Cat #SML1873-25MG) for 0, 2, 12, 24 or 48 hours and compared to untreated controls. For experiment 2 (FIGS. 6A-D), neurons were stimulated with either a saline solution, (2R,6R)-HNKet (10 μM), or a combination of (2R,6R)-HNKet (10 μM) plus nifedipine (10 μM) (Tocris Bioscience, Cat #1075), W-7 hydrochloride (10 μM) (Tocris, Cat #0369), or cyclosporine-A (1 μM) (Tocris, Cat #1101) for 30 minutes, 1, 2, or 6 hours, and compared to untreated controls.
Ketamine treatment regulates Kcnq2 in primary hippocampal neurons To corroborate the previous findings in glutamatergic neurons, it was next examined whether treatment of primary hippocampal neurons with either (R,S)-ketamine or its active metabolite, (2R,6R)-hydroxynorketamine (HNKet), could modify the mRNA expression of the 8 genes tested earlier in glutamatergic neurons. Mouse primary hippocampal neurons are mostly made up of glutamatergic neurons and therefore make a very good model system to further validate the previous in vivo findings. […]

mice = assay: Home cage activity (locomotion); format: in vivo, mouse; conditions: 60-min period following treatment and 2 days post injection
Method: The home cage activity was measured with the Mouse-E-Motion infrared-detecting devices (Infra-e-motion, Germany). Mice were single housed in fresh cages, and a metal food tray was employed to hold the devices in place. The base bedding was kept, but extra nesting materials that could conceal the animal were removed. The readout lasted 2 days (post-injection) during which time the animals were not disturbed. Locomotor activity was detected in 5-minute increments and averaged by the hour. The final analysis was applied to the first 60-minute period and the 48 hours (2 days), post injection.

CSDS mice (Nex-Cre-Ai9) = assay: Forced swim test in chronic social defeat stress (CSDS) mice; conditions: ketamine 10 mg/kg i.p. vs saline, two days after treatment

For `CNC1(c2ccccc2Cl)CCCCC1=O` (racemic) [ketamine, (R,S)-ketamine], the “Kcnq2 mRNA expression” value (Kcnq2 mRNA; bulk mRNA) was “no significant increase of Kcnq2 mRNA”, the “Kcnq2 mRNA expression” value (Kcnq2 mRNA; glutamatergic neurons (tdTomato+)) was “significantly increased to baseline levels” and the “Kcnq2 mRNA expression” value (Kcnq2 mRNA; tdTomato negative cells) was “no significant differences”. For the same compound, the “mRNA expression of Hspa8, Snap25, Hsp90ab1, Ndufa4, Ilf2, E2f1 and Kcnq2” value ([1]; 2, 12, 24 or 48 hours) was “significant changes”, the “Kcnq2 mRNA expression” value ([1]; 2, 12, 24 or 48 hours vs untreated and saline controls) was “significant upregulation at all time points tested” and the “locomotor activity (home cage), ketamine vs saline” value (mice) was “no differences in total activity between groups; also recorded: no significant difference in the locomotion activity”. For the same compound, the “immobility time during the FST” value (CSDS mice (Nex-Cre-Ai9)) was “significant decrease in immobility time”.
